Measured values reported in BigSolDB 2.1.

For `Cc1ccc2cc(Br)ccc2n1`, the solubility (mole fraction) (in DMF, 278.15 K) was 0.00585, the solubility (mole fraction) (in DMF, 283.15 K) was 0.00675 and the solubility (mole fraction) (in DMF, 288.15 K) was 0.00765. The solubility (mole fraction) (in DMF, 293.15 K) was 0.00869, the solubility (mole fraction) (in DMF, 298.15 K) was 0.00994 and the solubility (mole fraction) (in DMF, 303.15 K) was 0.0116. It also gave a solubility (mole fraction) (in DMF, 308.15 K) of 0.0137, a solubility (mole fraction) (in DMF, 313.15 K) of 0.0161 and a solubility (mole fraction) (in DMF, 318.15 K) of 0.0188. For the same molecule, the solubility (mole fraction) (in DMF, 323.15 K) was 0.0222, the solubility (mole fraction) (in acetone, 278.15 K) was 0.00678 and the solubility (mole fraction) (in acetone, 283.15 K) was 0.00793. For the same molecule, the solubility (mole fraction) (in acetone, 288.15 K) was 0.00926, the solubility (mole fraction) (in acetone, 293.15 K) was 0.0108 and the solubility (mole fraction) (in acetone, 298.15 K) was 0.0126. The solubility (mole fraction) (in acetone, 303.15 K) was 0.0149, the solubility (mole fraction) (in acetone, 308.15 K) was 0.0175 and the solubility (mole fraction) (in acetone, 313.15 K) was 0.0204. For the same molecule, the solubility (mole fraction) (in acetone, 318.15 K) was 0.0237, the solubility (mole fraction) (in acetone, 323.15 K) was 0.0276 and the solubility (mole fraction) (in acetonitrile, 278.15 K) was 0.00648. The solubility (mole fraction) (in acetonitrile, 283.15 K) was 0.00743, the solubility (mole fraction) (in acetonitrile, 288.15 K) was 0.00855 and the solubility (mole fraction) (in acetonitrile, 293.15 K) was 0.00974. For the same molecule, the solubility (mole fraction) (in acetonitrile, 298.15 K) was 0.0112, the solubility (mole fraction) (in acetonitrile, 303.15 K) was 0.0131 and the solubility (mole fraction) (in acetonitrile, 308.15 K) was 0.0154. For the same molecule, the solubility (mole fraction) (in acetonitrile, 313.15 K) was 0.0182, the solubility (mole fraction) (in acetonitrile, 318.15 K) was 0.0213 and the solubility (mole fraction) (in acetonitrile, 323.15 K) was 0.0253. For the same molecule, the solubility (mole fraction) (in ethanol, 278.15 K) was 0.000938, the solubility (mole fraction) (in ethanol, 283.15 K) was 0.00112 and the solubility (mole fraction) (in ethanol, 288.15 K) was 0.00131. The solubility (mole fraction) (in ethanol, 293.15 K) was 0.00151, the solubility (mole fraction) (in ethanol, 298.15 K) was 0.00179 and the solubility (mole fraction) (in ethanol, 303.15 K) was 0.00213. The solubility (mole fraction) (in ethanol, 308.15 K) was 0.00249, the solubility (mole fraction) (in ethanol, 313.15 K) was 0.00289 and the solubility (mole fraction) (in ethanol, 318.15 K) was 0.00334. For the same molecule, the solubility (mole fraction) (in ethanol, 323.15 K) was 0.0039, the solubility (mole fraction) (in ethyl acetate, 278.15 K) was 0.0072 and the solubility (mole fraction) (in ethyl acetate, 283.15 K) was 0.00844. For the same molecule, the solubility (mole fraction) (in ethyl acetate, 288.15 K) was 0.0101, the solubility (mole fraction) (in ethyl acetate, 293.15 K) was 0.0117 and the solubility (mole fraction) (in ethyl acetate, 298.15 K) was 0.0136. For the same molecule, the solubility (mole fraction) (in ethyl acetate, 303.15 K) was 0.0159, the solubility (mole fraction) (in ethyl acetate, 308.15 K) was 0.0187 and the solubility (mole fraction) (in ethyl acetate, 313.15 K) was 0.0218. It also gave a solubility (mole fraction) (in ethyl acetate, 318.15 K) of 0.0255, a solubility (mole fraction) (in ethyl acetate, 323.15 K) of 0.0299 and a solubility (mole fraction) (in isopropanol, 278.15 K) of 0.00191. It also gave a solubility (mole fraction) (in isopropanol, 283.15 K) of 0.00229, a solubility (mole fraction) (in isopropanol, 288.15 K) of 0.00274 and a solubility (mole fraction) (in isopropanol, 293.15 K) of 0.0032. It also gave a solubility (mole fraction) (in isopropanol, 298.15 K) of 0.00375, a solubility (mole fraction) (in isopropanol, 303.15 K) of 0.00442 and a solubility (mole fraction) (in isopropanol, 308.15 K) of 0.00518. It also gave a solubility (mole fraction) (in isopropanol, 313.15 K) of 0.00608, a solubility (mole fraction) (in isopropanol, 318.15 K) of 0.00703 and a solubility (mole fraction) (in isopropanol, 323.15 K) of 0.00812. The solubility (mole fraction) (in methanol, 278.15 K) was 0.000232, the solubility (mole fraction) (in methanol, 283.15 K) was 0.000276 and the solubility (mole fraction) (in methanol, 288.15 K) was 0.000319. It also gave a solubility (mole fraction) (in methanol, 293.15 K) of 0.000372, a solubility (mole fraction) (in methanol, 298.15 K) of 0.000444 and a solubility (mole fraction) (in methanol, 303.15 K) of 0.000525. It also gave a solubility (mole fraction) (in methanol, 308.15 K) of 0.000613, a solubility (mole fraction) (in methanol, 313.15 K) of 0.000719 and a solubility (mole fraction) (in methanol, 318.15 K) of 0.000849. It also gave a solubility (mole fraction) (in methanol, 323.15 K) of 0.000998, a solubility (mole fraction) (in n-propanol, 278.15 K) of 0.00218 and a solubility (mole fraction) (in n-propanol, 283.15 K) of 0.00261. The solubility (mole fraction) (in n-propanol, 288.15 K) was 0.00317, the solubility (mole fraction) (in n-propanol, 293.15 K) was 0.00371 and the solubility (mole fraction) (in n-propanol, 298.15 K) was 0.00438. It also gave a solubility (mole fraction) (in n-propanol, 303.15 K) of 0.00513, a solubility (mole fraction) (in n-propanol, 308.15 K) of 0.00593 and a solubility (mole fraction) (in n-propanol, 313.15 K) of 0.00687. It also gave a solubility (mole fraction) (in n-propanol, 318.15 K) of 0.0079, a solubility (mole fraction) (in n-propanol, 323.15 K) of 0.00914 and a solubility (mole fraction) (in toluene, 278.15 K) of 0.00817. For the same molecule, the solubility (mole fraction) (in toluene, 283.15 K) was 0.00953, the solubility (mole fraction) (in toluene, 288.15 K) was 0.0111 and the solubility (mole fraction) (in toluene, 293.15 K) was 0.0132. It also gave a solubility (mole fraction) (in toluene, 298.15 K) of 0.0155, a solubility (mole fraction) (in toluene, 303.15 K) of 0.018 and a solubility (mole fraction) (in toluene, 308.15 K) of 0.0212. It also gave a solubility (mole fraction) (in toluene, 313.15 K) of 0.0248, a solubility (mole fraction) (in toluene, 318.15 K) of 0.0286 and a solubility (mole fraction) (in toluene, 323.15 K) of 0.0332. It also gave a solubility (mole fraction) (in water, 278.15 K) of 6.88e-06, a solubility (mole fraction) (in water, 283.15 K) of 8.1e-06 and a solubility (mole fraction) (in water, 288.15 K) of 9.62e-06. It also gave a solubility (mole fraction) (in water, 293.15 K) of 1.13e-05, a solubility (mole fraction) (in water, 298.15 K) of 1.33e-05 and a solubility (mole fraction) (in water, 303.15 K) of 1.54e-05. It also gave a solubility (mole fraction) (in water, 308.15 K) of 1.82e-05, a solubility (mole fraction) (in water, 313.15 K) of 2.13e-05 and a solubility (mole fraction) (in water, 318.15 K) of 2.48e-05. It also gave a solubility (mole fraction) (in water, 323.15 K) of 2.89e-05.
